# Test results: ChEMBL document CHEMBL3351221, “Synthetic derivatives of aromatic abietane diterpenoids and their biological activities” (Eur J Med Chem, 2014)
# Columns and labels:
# [1] = Cytotoxicity against human PC3 cells; format: functional, cell-based; conditions: PC-3
# [2] = Cytotoxicity against human Hey-1B cells; format: functional, cell-based
# [3] = test system: SMMC-7721; experiment: Cytotoxicity against human SMMC7721 cells; format: functional, cell-based
# [4] = test system: C6; experiment: Cytotoxicity against rat C6 cells; format: functional, cell-based
# [5] = test system: A549; experiment: Cytotoxicity against human A549 cells; format: functional, cell-based
# [6] = test system: MCF7; experiment: Cytotoxicity against human MCF7 cells; format: functional, cell-based
# [7] = test system: Mus musculus; experiment: Gastroprotective activity in mouse assessed as reduction in HCl/EtOH-induced gastric lesions at 20 mg/kg; format: functional; conditions: Stomach
# [8] = test system: AGS; experiment: Cytotoxicity against human AGS cells; format: cell-based
# [9] = test system: MRC5; experiment: Cytotoxicity against human MRC5 cells; format: cell-based
# [10] = test system: Staphylococcus aureus; experiment: Antimicrobial activity against methicillin-resistant Staphylococcus aureus; format: functional
# [11] = test system: Enterococcus; experiment: Antimicrobial activity against Vancomycin-resistant Enterococcus; format: functional
# [12] = test system: Mus musculus; experiment: Gastroprotective activity in mouse assessed as reduction in HCl/EtOH-induced gastric lesions at 10 mg/kg; format: functional; conditions: Stomach
Structure (SMILES),inhibition in vivo at 20 mg/kg [7] [%],IC50 [8] [µM],IC50 [9] [µM],further results
CC(C)c1cc2c(cc1[N+](=O)[O-])[C@@]1(C)CCC[C@@](C)(CNC(=O)c3ccccc3)[C@@H]1CC2,,,,IC50 [1]: 5.7 µg/mL; IC50 [2]: 11.3 µg/mL
CC(C)c1cc2c(cc1[N+](=O)[O-])[C@@]1(C)CCC[C@@](C)(CNC(=O)c3ccccc3Cl)[C@@H]1CC2,,,,IC50 [1]: 5.7 µg/mL; IC50 [2]: 11.3 µg/mL
CC(C)c1cc2c(cc1[N+](=O)[O-])[C@@]1(C)CCC[C@@](C)(CNC(=O)c3ccc([N+](=O)[O-])cc3)[C@@H]1CC2,,,,IC50 [1]: 5.7 µg/mL; IC50 [2]: 11.3 µg/mL
COc1ccc(/C=N/C[C@]2(C)CCC[C@]3(C)c4ccc(C(C)C)cc4CC[C@@H]23)cc1,,,,IC50 [3]: 6.65 µM; IC50 [4]: 0.81 µM; IC50 [5]: 0.75 µM; IC50 [6]: 10.7 µM
COc1ccc(/C=N/C[C@]2(C)CCC[C@]3(C)c4ccc(C(C)C)cc4CC[C@@H]23)c(O)c1,,,,IC50 [3]: 6.65 µM; IC50 [4]: 0.81 µM; IC50 [5]: 0.75 µM; IC50 [6]: 10.7 µM
CC(C)c1ccc2c(c1)CC[C@H]1[C@](C)(C/N=C/c3ccc(C(F)(F)F)cc3)CCC[C@]21C,,,,IC50 [3]: 6.65 µM; IC50 [4]: 0.81 µM; IC50 [5]: 0.75 µM; IC50 [6]: 10.7 µM
CC(C)c1ccc2c(c1)CC[C@H]1[C@](C)(C/N=C/c3cccc(F)c3)CCC[C@]21C,,,,IC50 [3]: 6.65 µM; IC50 [4]: 0.81 µM; IC50 [5]: 0.75 µM; IC50 [6]: 10.7 µM
CC(C)c1ccc2c(c1)CC[C@H]1C(C)(C)CCC[C@]21C,69,,,
CC(Cl)C(=O)Oc1cc2c(cc1C(C)C)CC[C@H]1C(C)(C)CCC[C@]21C (stereo partly specified),76,18,19,
C=CC(=O)Oc1cc2c(cc1C(C)C)CC[C@H]1C(C)(C)CCC[C@]21C,67,18,19,
CC(=O)OC[C@H]1O[C@@H](Oc2cc3c(cc2C(C)C)CC[C@H]2C(C)(C)CCC[C@]32C)[C@H](OC(C)=O)[C@@H](OC(C)=O)[C@@H]1OC(C)=O,72,> 1000,> 1000,
CC(C)c1cc2c(cc1O[C@@H]1O[C@H](CO)[C@H](O)[C@H](O)[C@H]1O)[C@@]1(C)CCCC(C)(C)[C@@H]1CC2,61,18,19,
CC(C)c1cc2c(cc1OC=O)[C@@]1(C)CCCC(C)(C)[C@@H]1CC2,,18,19,
CC(=O)Oc1cc2c(cc1C(C)C)CC[C@H]1C(C)(C)CCC[C@]21C,,18,19,
CCC(=O)Oc1cc2c(cc1C(C)C)CC[C@H]1C(C)(C)CCC[C@]21C,,18,19,
CC(C)c1cc2c(cc1O[C@@H]1O[C@H](CO)[C@@H](O)[C@H](O)[C@H]1O)[C@@]1(C)CCCC(C)(C)[C@@H]1CC2,,18,19,

Structure (SMILES),inhibition in vivo at 20 mg/kg [7] [%],IC50 [8] [µM],IC50 [9] [µM],further results
CC(C)c1cc2c(cc1OC(=O)c1cccnc1)[C@@]1(C)CCCC(C)(C)[C@@H]1CC2,71,22,> 1000,
CCCCCCCCCCCCCCCC(=O)Oc1cc2c(cc1C(C)C)CC[C@H]1C(C)(C)CCC[C@]21C,50,,> 1000,
CCCCCCCC/C=C/CCCCCCCC(=O)Oc1cc2c(cc1C(C)C)CC[C@H]1C(C)(C)CCC[C@]21C,50,,> 1000,
Cc1c(C(=O)Oc2cc3c(cc2C(C)C)CC[C@H]2C(C)(C)CCC[C@]32C)oc2ccccc12,50,,> 1000,
CC(C)c1cc2c(cc1OC(=O)Cc1c[nH]c3ccccc13)[C@@]1(C)CCCC(C)(C)[C@@H]1CC2,50,12,> 1000,
CC(C)c1cc2c(cc1OC(=O)CCCc1c[nH]c3ccccc13)[C@@]1(C)CCCC(C)(C)[C@@H]1CC2,50,,> 1000,
CC(C)c1cc2c(cc1OC(=O)c1cc([N+](=O)[O-])cc([N+](=O)[O-])c1)[C@@]1(C)CCCC(C)(C)[C@@H]1CC2,,29,> 1000,
CC(C)c1cc2c(cc1O)[C@@]1(C)CCCC(C)(C)[C@@H]1C(=O)C2,,,,MIC [10]: 4 µg/mL; MIC [11]: 4 µg/mL
COC(=O)[C@]12CCCC(C)(C)[C@@H]1CCc1cc(C(C)C)c(OC(=O)c3ccccc3)c(OC(=O)c3ccccc3)c12,,,,inhibition in vivo at 10 mg/kg [12]: 73%
CCCOC(=O)[C@]12CCCC(C)(C)[C@@H]1CCc1cc(C(C)C)c(OC)c(OC(=O)CCC)c12,,,,inhibition in vivo at 10 mg/kg [12]: 73%
COC(=O)[C@]12CCCC(C)(C)[C@@H]1CCc1cc(C(C)C)c(OC(=O)Cc3cc4ccccc4[nH]3)c(OC(=O)Cc3cc4ccccc4[nH]3)c12,,,,inhibition in vivo at 10 mg/kg [12]: 73%
CC(C)c1cc2c(c(O)c1O)[C@@]1(C)CCCC(C)(C)[C@@H]1CC2=O [DEMETHYLCRYPTOJAPONOL],,,,MIC [10]: 4 µg/mL; MIC [11]: 4 µg/mL
CC(C)c1cc2c(cc1O)[C@@]1(C)CCCC(C)(C)[C@@H]1CC2 [FERRUGINOL],,18,19,
Cc1c(OCC(F)(F)F)ccnc1C[S+]([O-])c1nc2ccccc2[nH]1 (stereo unspecified) [LANSOPRAZOLE],,,,inhibition in vivo at 10 mg/kg [12]: 64%
CC(C)c1cc2c(c(O)c1O)[C@@]1(C)CCCC(C)(C)C1=CC2=O [SALVINOLONE],,,,MIC [10]: 4 µg/mL; MIC [11]: 4 µg/mL
